Consider seven compounds from ChEMBL document CHEMBL1201862, “PubChem BioAssay data set” (2004).

The structures appear in SMILES notation. Calls of active or inactive are those of the source.

Experiment [1] relates to INS1. As to the kind of experiment: INS-1E survival protection against cytokine death – cell-based, luminescence, retest, dose response (AID 449756).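 Further: cell death triggered by IL-1 beta plus TNF-alpha plus IFN-gamma mixture; protective hits raise ATP signal compared with cytokine alone wells.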 Format: functional. The note with it: Rattus norvegicus.
Another experiment has as its target T1, Bcl-2-related protein A1 (Mus musculus, UniProt Q07440).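 Further: confirmatory dose–response counterscreen on Bfl-1, used to check hits from a UBC13 polyubiquitin inhibitor campaign.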
T1 sequence (Q07440 whole entry): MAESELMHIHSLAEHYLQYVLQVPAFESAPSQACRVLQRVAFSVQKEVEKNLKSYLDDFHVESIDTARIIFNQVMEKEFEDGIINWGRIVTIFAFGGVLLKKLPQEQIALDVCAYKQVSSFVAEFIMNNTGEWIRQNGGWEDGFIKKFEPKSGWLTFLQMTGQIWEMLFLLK
Format: functional.

The nature of experiment [2]: microbe, parasite or virus in culture. Format: functional. As to conditions: Mycobacterium tuberculosis.
Experiment [3] in a line: NIH-3T3 fibroblast cytotoxicity, dose response, cytotoxicity control, cell-based, fluorescence, Alamar Blue, secondary assay (AID 2327).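 Further: NIH-3T3 mouse fibroblasts cultured with fluconazole at 8 µg/mL.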 Format: functional.
Experiment [4] can be described thus: fluconazole-exposed Candida albicans growth modulators – fluorescence, retest, confirmation (AID 2467). Format: functional, cell-based.
The next experiment has as its system Jurkat. Briefly: blockers of NF-kB activation in T cells – Jurkat, luciferase reporter, luminescence, B- and T-cell, dose response (AID 489004).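 Further: NF-kB luciferase reporter Jurkat cells stimulated with PMA plus ionomycin.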 Format: functional, cell-based. As to conditions: Homo sapiens.
The target of experiment [5] is T2, Ubiquitin-conjugating enzyme E2 N (Homo sapiens, UniProt P61088).
T2 sequence (P61088 whole entry): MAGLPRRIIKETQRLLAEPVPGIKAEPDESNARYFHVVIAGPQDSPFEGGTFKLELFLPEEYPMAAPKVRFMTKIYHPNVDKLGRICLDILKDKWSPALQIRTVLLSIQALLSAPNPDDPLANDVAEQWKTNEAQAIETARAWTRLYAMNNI
Format: functional.

Experiment [6] has as its target T2, Ubiquitin-conjugating enzyme E2 N. Format: functional. The source holds these as a separate data set.
A short description of experiment [7]: HEK-293T viability loss, compound-treated – cell-based, uHTS hits, cytotoxicity control for B/T-cell NF-kB inhibitor project, dose response (AID 489019).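 Further: IC50 reflects cytotoxicity as loss of cell viability.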 Format: functional.
The subject of experiment [8] is INS1. As to the kind of experiment: suppression of NO production in INS-1E cells – cell-based, Griess absorbance, dry powder, dose response (AID 488866). Format: functional. As to conditions: Rattus norvegicus.
Experiment [9] addresses T3, Dual specificity protein phosphatase 3 (Homo sapiens, UniProt P51452). Briefly: SAR VHR1 Fluorescent Assay for In Vitro dose response studies Set 3. [Related pubchem assays (depositor defined):AID1654, AID1661, AID1878]. Format: functional.
For experiment [10], the target named is T4, Small ubiquitin-related modifier 1 (Homo sapiens, UniProt P63165). As to the kind of experiment: SUMO1 protein interaction blockers, potency – biochemical, fluorescence polarization, uHTS hits, dose response (AID 624382). Format: functional. The note with it: read-out: IC50_Mean.
T4 sequence (P63165 whole entry): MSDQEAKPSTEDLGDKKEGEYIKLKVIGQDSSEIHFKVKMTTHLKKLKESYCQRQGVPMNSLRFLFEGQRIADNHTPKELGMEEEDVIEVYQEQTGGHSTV
The target in experiment [11] is T5, Apoptotic protease-activating factor 1 (Homo sapiens, UniProt O14727).
T5 sequence (O14727 whole entry): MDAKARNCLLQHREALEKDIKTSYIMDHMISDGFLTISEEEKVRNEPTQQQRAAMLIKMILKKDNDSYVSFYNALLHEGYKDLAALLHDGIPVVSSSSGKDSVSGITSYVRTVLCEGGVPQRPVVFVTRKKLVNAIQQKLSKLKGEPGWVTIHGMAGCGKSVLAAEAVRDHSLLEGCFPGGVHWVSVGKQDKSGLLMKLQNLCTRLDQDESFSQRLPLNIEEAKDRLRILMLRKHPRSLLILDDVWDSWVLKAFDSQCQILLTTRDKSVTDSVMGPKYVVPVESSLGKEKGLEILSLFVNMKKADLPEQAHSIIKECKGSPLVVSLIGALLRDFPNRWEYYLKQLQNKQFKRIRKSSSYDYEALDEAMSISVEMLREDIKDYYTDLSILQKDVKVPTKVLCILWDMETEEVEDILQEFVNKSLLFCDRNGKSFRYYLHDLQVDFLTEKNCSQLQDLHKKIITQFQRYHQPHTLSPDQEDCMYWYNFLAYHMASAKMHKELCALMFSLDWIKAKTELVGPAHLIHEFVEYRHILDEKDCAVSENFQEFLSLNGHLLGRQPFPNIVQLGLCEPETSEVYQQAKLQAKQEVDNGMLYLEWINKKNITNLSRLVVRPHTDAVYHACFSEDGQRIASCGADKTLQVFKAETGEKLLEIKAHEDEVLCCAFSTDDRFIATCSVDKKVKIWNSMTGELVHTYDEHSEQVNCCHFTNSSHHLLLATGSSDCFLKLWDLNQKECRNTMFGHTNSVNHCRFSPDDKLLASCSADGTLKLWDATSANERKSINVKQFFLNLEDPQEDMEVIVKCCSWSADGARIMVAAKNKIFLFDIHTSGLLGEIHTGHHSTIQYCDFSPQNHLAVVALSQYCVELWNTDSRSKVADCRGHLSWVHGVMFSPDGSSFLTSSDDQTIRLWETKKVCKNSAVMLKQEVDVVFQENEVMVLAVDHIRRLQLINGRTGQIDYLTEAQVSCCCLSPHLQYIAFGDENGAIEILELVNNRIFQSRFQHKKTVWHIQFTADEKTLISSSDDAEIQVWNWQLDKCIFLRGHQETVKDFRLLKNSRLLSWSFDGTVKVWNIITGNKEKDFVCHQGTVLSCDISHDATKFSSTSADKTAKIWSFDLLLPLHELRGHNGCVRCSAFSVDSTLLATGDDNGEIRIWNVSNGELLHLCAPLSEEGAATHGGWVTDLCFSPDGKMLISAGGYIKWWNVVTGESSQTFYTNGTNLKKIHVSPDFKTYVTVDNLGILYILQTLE
As to the kind of experiment: activation of Apaf-1 mediated apoptosis – fluorescent, uHTS hits, dose response (AID 588554). Format: functional.

Experiment [12] concerns the target T6, Carboxy-terminal domain RNA polymerase II polypeptide A small phosphatase 1 (Homo sapiens, UniProt Q9GZU7).
T6 sequence (Q9GZU7 whole entry): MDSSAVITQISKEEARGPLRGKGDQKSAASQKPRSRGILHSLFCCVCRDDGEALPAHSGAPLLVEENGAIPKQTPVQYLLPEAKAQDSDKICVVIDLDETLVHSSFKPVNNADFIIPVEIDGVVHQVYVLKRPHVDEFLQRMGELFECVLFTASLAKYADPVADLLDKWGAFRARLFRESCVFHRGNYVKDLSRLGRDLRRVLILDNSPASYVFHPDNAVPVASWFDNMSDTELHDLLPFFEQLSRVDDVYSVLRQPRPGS
Briefly: CTDSP1 inhibitors, concentration-response, biochemical, absorbance readout, ultra-high-throughput screen actives (AID 540297). Format: functional.

In experiment [13] the target is Bifunctional protein GlmU (Mycobacterium tuberculosis, UniProt P9WMN3). Briefly: Inhibitors of Mycobacterial Glucosamine-1-phosphate acetyl transferase (GlmU). Secondary screen. Also noted: species or system Mycobacterium tuberculosis H37Rv.
Sequence of Bifunctional protein GlmU (P9WMN3 whole entry): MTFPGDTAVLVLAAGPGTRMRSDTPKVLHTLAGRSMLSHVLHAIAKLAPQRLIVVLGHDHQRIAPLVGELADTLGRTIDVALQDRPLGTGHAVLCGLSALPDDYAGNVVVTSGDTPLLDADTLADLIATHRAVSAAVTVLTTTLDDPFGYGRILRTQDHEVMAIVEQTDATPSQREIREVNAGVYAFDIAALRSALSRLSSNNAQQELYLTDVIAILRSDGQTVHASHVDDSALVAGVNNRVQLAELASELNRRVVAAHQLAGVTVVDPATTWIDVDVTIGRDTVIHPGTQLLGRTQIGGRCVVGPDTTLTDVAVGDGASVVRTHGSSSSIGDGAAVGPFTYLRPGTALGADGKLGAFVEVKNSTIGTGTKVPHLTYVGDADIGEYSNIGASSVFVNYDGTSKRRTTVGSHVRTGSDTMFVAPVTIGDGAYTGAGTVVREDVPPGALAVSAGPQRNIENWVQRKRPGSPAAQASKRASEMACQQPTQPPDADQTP
In experiment [14] the target is T4, Small ubiquitin-related modifier 1. As to the kind of experiment: SUMO1 protein-protein binding blockers, potency – biochemical, FRET, dose response (AID 624383). Format: functional. As to conditions: read-out: IC50_Mean.
Experiment [15] concerns the target DNA dC->dU-editing enzyme APOBEC-3G (Homo sapiens, UniProt Q9HC16). As to the kind of experiment: Dose Response confirmation of small molecule APOBEC3G DNA Deaminase Inhibitors via a fluorescence-based single-stranded DNA deaminase assay. [Related pubchem assays (depositor defined):AID493012, AID493028]. Format: functional.
The target in experiment [16] is DNA (cytosine-5)-methyltransferase 1 (Homo sapiens, UniProt P26358). Briefly: inhibition of DNA methylation by DNMT1 – biochemical, fluorescent molecular beacon, confirmation (AID 602386). Format: functional.
For experiment [17], the target named is DNA dC->dU-editing enzyme APOBEC-3A (Homo sapiens, UniProt P31941). As to the kind of experiment: A3A deaminase inhibition for selectivity – biochemical, dose response (AID 504722). Format: functional.
Sequence of DNA dC->dU-editing enzyme APOBEC-3A (P31941 whole entry): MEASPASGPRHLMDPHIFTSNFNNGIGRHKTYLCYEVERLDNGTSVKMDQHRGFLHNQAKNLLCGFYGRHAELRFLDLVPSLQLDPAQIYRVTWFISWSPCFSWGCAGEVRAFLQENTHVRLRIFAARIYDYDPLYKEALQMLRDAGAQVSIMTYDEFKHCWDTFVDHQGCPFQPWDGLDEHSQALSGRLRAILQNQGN
A short description of experiment [18]: Luminescence Cell-Based Dose Retest to Confirm Inhibitors of Cancer Stem Cells. [Related pubchem assays (depositor defined):AID2717, AID2721]. Format: functional. As to conditions: Homo sapiens.
Experiment [19] can be described thus: viability loss of HMLE_sh_eGFP cells – cell-based, luminescence, counter-screen for HMLE_sh_ECad selective toxicity project, dose response (AID 463074).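 Further: HMLE human mammary epithelial cells expressing control shRNA against eGFP.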 Format: functional, Homo sapiens.
In experiment [20] the target is Beta-lactamase (Salmonella choleraesuis (strain SC-B67), UniProt Q5J463).
Sequence of Beta-lactamase (Salmonella choleraesuis (strain SC-B67), UniProt Q5J463) (Q5J463 whole entry): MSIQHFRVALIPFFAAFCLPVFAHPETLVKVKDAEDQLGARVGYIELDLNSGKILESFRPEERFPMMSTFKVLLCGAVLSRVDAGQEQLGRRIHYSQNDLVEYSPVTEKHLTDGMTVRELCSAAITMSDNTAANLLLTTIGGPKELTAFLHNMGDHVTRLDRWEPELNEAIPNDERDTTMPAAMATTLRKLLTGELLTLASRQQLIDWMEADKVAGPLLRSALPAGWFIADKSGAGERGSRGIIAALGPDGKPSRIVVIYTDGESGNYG
In a further experiment the target is Keap1/Nrf2 (Homo sapiens, UniProt Q14145). As to the kind of experiment: disruptors of Keap1 binding to Nrf2 peptide – biochemical, fluorescence polarization, cherry-picked samples, dose response (AID 588683).
Sequence of Keap1/Nrf2 (Q16236 whole entry): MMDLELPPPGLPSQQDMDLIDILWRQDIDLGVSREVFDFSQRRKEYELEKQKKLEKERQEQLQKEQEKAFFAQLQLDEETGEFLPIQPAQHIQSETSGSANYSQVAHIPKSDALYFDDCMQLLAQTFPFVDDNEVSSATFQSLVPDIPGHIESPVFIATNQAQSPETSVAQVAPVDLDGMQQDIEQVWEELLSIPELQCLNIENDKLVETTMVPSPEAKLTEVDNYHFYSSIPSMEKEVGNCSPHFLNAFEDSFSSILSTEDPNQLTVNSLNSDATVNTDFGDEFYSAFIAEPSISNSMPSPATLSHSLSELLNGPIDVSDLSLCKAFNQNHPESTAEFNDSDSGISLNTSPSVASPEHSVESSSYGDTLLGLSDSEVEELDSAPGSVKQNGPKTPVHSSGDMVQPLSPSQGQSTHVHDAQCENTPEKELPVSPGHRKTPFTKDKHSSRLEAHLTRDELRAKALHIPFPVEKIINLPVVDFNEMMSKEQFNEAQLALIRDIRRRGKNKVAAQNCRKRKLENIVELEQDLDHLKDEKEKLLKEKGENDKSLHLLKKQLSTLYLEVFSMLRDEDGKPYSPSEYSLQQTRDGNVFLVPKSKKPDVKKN
Sequence of Keap1/Nrf2 (Q14145 whole entry): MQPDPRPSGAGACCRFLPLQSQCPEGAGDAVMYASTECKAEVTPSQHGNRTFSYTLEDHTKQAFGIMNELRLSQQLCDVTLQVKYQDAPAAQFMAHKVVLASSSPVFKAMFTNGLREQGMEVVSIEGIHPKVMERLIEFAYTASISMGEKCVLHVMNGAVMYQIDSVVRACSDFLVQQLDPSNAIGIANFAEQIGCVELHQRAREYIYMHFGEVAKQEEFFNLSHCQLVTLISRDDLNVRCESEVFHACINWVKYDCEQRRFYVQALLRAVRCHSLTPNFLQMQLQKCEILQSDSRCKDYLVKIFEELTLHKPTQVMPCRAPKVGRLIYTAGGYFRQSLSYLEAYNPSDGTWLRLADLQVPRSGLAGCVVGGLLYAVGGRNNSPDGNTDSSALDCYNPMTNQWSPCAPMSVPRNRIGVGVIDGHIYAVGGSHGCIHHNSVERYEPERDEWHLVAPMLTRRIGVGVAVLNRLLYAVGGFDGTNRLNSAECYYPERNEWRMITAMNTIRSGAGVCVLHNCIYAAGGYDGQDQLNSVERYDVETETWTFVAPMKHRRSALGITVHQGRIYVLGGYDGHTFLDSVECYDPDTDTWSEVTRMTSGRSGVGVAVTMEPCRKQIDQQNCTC
Another experiment deals with ORF 73 (Human herpesvirus 8, UniProt O40947). Briefly: KSHV LANA DNA-binding disruption – biochemical, fluorescence polarization, cherry-picked samples, dose response (AID 504725).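 Further: fluorescence polarization of a labeled DNA duplex reporting LANA DNA binding; potency is for inhibitors that block LANA binding to the DNA.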 Also noted: species or system Human gammaherpesvirus 8.
Sequence of ORF 73 (O40947 whole entry): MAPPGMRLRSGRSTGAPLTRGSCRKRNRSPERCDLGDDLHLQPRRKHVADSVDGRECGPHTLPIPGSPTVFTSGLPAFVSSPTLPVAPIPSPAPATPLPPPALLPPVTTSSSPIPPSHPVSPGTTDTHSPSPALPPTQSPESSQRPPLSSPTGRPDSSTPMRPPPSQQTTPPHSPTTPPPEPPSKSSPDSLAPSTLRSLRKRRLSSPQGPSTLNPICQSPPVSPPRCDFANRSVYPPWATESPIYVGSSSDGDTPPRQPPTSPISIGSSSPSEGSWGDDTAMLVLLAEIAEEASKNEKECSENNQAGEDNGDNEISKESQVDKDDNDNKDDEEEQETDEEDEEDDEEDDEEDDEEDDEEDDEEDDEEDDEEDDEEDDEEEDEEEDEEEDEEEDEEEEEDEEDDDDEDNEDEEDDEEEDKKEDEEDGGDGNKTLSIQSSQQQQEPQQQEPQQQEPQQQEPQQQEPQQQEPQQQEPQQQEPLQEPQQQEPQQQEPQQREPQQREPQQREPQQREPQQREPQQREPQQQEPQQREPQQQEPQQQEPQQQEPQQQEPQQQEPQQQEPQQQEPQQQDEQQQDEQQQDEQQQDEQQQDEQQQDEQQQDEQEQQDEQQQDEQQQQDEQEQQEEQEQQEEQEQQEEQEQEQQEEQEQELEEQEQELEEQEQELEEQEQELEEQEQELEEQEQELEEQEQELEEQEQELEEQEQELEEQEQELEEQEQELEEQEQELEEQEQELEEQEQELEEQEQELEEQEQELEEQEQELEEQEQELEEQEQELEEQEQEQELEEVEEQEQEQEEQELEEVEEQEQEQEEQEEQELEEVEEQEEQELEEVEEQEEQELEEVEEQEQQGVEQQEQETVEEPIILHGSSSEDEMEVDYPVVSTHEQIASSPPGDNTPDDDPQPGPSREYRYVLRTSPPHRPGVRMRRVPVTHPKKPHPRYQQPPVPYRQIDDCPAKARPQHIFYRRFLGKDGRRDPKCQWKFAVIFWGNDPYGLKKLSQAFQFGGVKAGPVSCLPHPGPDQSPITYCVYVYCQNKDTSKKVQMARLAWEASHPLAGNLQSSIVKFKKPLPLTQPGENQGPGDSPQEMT
Experiment [21] addresses Beta-lactamase (Pseudomonas aeruginosa, UniProt Q79MP6).
The target in experiment [22] is T3, Dual specificity protein phosphatase 3. Briefly: SAR VHR1 Fluorescent Assay for In Vitro dose response studies. [Related pubchem assays (depositor defined):AID1654, AID1661, AID1878, AID1992, AID2004, AID2070, AID2085]. Format: functional.
Experiment [23] concerns the target T7, Tyrosine-protein phosphatase non-receptor type 7 (Homo sapiens, UniProt P35236).
T7 sequence (P35236 whole entry): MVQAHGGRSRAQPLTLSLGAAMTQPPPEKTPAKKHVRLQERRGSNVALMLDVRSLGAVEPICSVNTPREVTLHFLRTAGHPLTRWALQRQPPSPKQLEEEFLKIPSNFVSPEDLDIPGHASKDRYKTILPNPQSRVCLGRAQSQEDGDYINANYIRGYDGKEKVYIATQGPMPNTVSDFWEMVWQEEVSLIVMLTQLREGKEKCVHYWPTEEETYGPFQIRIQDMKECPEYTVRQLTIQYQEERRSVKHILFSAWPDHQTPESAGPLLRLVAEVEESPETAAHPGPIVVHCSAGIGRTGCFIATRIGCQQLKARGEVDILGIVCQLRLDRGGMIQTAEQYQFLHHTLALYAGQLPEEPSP
As to the kind of experiment: redox-active compounds inhibiting HePTP phosphatase – biochemical, fluorescence, mechanism study (AID 2068). Format: functional.

The target of experiment [24] is T3, Dual specificity protein phosphatase 3. Briefly: SAR VHR1 absorbance Assay for In Vitro dose response studies. [Related pubchem assays (depositor defined):AID1654, AID1661, AID1878, AID1992, AID2004].
In experiment [25] the target is Dual specificity protein phosphatase 6 (Rattus norvegicus, UniProt Q64346). Format: functional.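 Further: confirmatory in vitro dose-response testing of MKP-3 inhibition; recombinant His-tagged MKP-3 made in E. coli BL21 with OMFP substrate.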
Sequence of Dual specificity protein phosphatase 6 (Q64346 whole entry): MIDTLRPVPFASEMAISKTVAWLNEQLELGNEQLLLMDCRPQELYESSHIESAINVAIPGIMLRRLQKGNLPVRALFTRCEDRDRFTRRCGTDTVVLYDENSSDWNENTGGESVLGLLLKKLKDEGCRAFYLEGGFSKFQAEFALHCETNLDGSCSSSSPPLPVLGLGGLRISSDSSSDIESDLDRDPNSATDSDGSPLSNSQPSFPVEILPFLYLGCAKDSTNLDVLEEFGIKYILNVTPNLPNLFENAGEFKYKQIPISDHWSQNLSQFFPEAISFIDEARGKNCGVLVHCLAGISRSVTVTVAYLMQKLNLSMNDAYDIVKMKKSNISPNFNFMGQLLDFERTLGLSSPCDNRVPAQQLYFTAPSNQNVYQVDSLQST

T3 sequence (P51452 whole entry): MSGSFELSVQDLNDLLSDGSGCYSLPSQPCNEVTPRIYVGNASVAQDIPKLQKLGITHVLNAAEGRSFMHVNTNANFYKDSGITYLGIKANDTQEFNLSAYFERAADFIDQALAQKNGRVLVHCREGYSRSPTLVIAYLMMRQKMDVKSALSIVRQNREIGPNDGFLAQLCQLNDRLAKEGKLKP
Sequence of Beta-lactamase (Pseudomonas aeruginosa, UniProt Q79MP6) (Q79MP6 whole entry): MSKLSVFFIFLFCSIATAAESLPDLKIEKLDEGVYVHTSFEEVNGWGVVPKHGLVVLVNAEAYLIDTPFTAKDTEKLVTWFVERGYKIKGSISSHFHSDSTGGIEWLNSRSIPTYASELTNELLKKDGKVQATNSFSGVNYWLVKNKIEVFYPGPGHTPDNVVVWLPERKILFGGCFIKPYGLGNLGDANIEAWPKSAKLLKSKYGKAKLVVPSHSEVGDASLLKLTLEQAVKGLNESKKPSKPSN
Sequence of DNA dC->dU-editing enzyme APOBEC-3G (Q9HC16 whole entry): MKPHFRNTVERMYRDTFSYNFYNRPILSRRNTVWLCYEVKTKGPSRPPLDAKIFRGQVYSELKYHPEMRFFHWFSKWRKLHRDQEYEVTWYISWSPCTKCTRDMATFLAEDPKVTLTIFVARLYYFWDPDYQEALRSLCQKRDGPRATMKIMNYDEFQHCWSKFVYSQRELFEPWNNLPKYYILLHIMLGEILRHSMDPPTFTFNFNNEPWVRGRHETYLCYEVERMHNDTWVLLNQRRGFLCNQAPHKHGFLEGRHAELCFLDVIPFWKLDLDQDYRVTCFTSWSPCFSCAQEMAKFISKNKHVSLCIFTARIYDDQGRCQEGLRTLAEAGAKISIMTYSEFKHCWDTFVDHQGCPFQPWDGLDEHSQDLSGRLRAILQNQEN

Consider `CCC(C)(C)c1ccc(OCCCC[n+]2ccc(C)cc2)c(C(C)(C)CC)c1`, for which the AC50 in the experiment with INS1 [1] is 1.26 µM (active). Also, the IC50 was > 20 µM (inactive) on Bcl-2-related protein A1; 4.32 µM (active) in the experiment on Jurkat; > 20 µM (inactive) in experiment [5]; 12.6 µM (active) in experiment [6]; 62.2 µM (inactive) in [7]. The CC50 in [2] is > 40 µM (active). Moreover, the EC50 is > 160 µM (inactive) in experiment [3] and 0.344 µM (active) in [4].
On to `COc1ccc(S(=O)(=O)N(C)C[C@@H]2Oc3c(NC(=O)NC4CCCc5ccccc54)cccc3C(=O)N([C@@H](C)CO)C[C@H]2C)cc1` (some centres undefined), for which, in the experiment with INS1 [8], the AC50 was 124 µM (active).
As to `COc1cccc2sc(Nc3nnc(-c4ccccc4)o3)nc12`, the IC50 in experiment [9] was 12 µM (active).
`C=C(C)C(=O)Nc1cccc(C2=NOC3(C2)C[C@H](C(N)=O)N(C(=O)COc2ccc(Cl)cc2)C3)c1` (some centres undefined): the IC50 in [10] was > 66.6 µM (inactive); in [12], 3.74 µM (active); in experiment [13], 118 µM (active); in [14], 1.94 µM (active); in experiment [15] it was 7.21 µM (active); in [16], 5.52 µM (active). In addition, the IC50 in experiment [17] is > 100 µM (inactive). Further, the EC50 in [11] is 4.23 µM (active).
As to `Oc1ccccc1C1CC(c2cccs2)=NC(c2cccc(Br)c2)N1` (centres undefined), the AC50 in experiment [18] was 21.1 µM (active); in experiment [19], 23.9 µM (active).
In the case of `Nc1ccc2c3c(cccc13)C(=O)N(c1ccccc1)C2=O`, the IC50 at Beta-lactamase [20] was 4.41 µM (active); on Beta-lactamase [21], 12.7 µM (inactive). Also, the AC50 at Keap1/Nrf2 was 1.4 µM (active); on ORF 73 it was 5.56 µM (active).
For `S=C(NC1CCCCC1)c1cn(CCOc2ccccc2)c2ccccc12`, the IC50 in experiment [22], in [23], in experiment [24] and in [25] was > 100 µM (inactive) in each case.
